The values that follow come from patent publication US8158621B2, “Methods of treating or preventing autoimmune diseases with 2,4-pyrimidinediamine compounds” (Rigel Pharmaceuticals, Inc., priority 2002, dated 2012).

For the first experiment, the system named is Human Jurkat T-cells (clone N). Briefly: Jurkat T-cell activation (anti-TCR, CD69 upregulation). The class given is cell-based.
Conditions: not given
As to the method: The screening process took place over three days.
On the first day of the screen, cultured cells were spun down on a centrifuge (1000 rpm, 5 minutes) and resuspended at 3.0×10^5 cells/ml in RPMI+5% FBS. On the second day of the screen, cells were spun down at 1000 rpm for 5 minutes and resuspended in RPMI+5% FBS at 1.3×10^5 cells/ml. 85 μl of this cell suspension were added to the wells of U-bottom 96 well plates (Corning) 85 μl of compound or diluted RPMI+5% FBS (as a control) only was added to each well and incubated at 37° C. for 1 hour. The cells were then stimulated with anti-TCR (C305) at: 500 ng/ml by adding a 8× solution in 25 μl to the plated cells. The cells were then incubated at 37° C. for 20 hrs.
On the third day of the screen, the plates were spun at 2500 RPM for 1 minute on a Beckman GS-6R centrifuge, and the medium was then removed. 50 μl staining solution (1:100 dilution of anti-CD69-APC antibody (Becton Dickenson) in PBS+2% FBS) was then added to each well, followed by incubation of the plates 4 degrees for 20 minutes in the dark. 150 μl of wash buffer (PBS+2% FBS) was then added to each well, and the plates were spun at 3000 RPM for 1 minute. The supernatant was again removed, and the pellet was resuspended by vortexing gently. 75 μl of PBS+2% FBS +Cytofix (1:4 dilution) was then added, the plates gently vortexed and wrap in aluminum foil. Cells from the plates were read using a flow cytometer coupled to an automated liquid handling system.
Varied concentrations of compound were compared to solvent only to determine the inhibition of T-cell activation IC50 of each compound.
For orientation: IC50 means the midpoint of a concentration-inhibition curve. A low value points to greater potency. As for `CC1(C)Oc2ccc(Nc3nc(Cl)ncc3F)cc2NC1=O` [Compound R940322], the IC50 was found to be 4.57 µM.

The compound `CNC(=O)COc1cc(Nc2ncc(F)c(Nc3ccc4c(c3)OCCO4)n2)ccc1OC` [Compound R926828] had a concentration for half-maximal inhibition (IC50) of 1.01 µM.

Compound `Cc1cnc(Nc2ccc(OCc3nnn[nH]3)cc2)nc1Nc1cccc(O)c1` [Compound R920820] showed an IC50 greater than 10 µM.

Consider `CCOC(=O)COc1cccc(Nc2ncc(F)c(Nc3ccc4c(c3)OCCO4)n2)c1` [Compound R926482], for which half-maximal inhibition (IC50) required 8.26 µM.

The compound `O=C(COc1cccc(Nc2ncc(F)c(Nc3ccc4c(c3)OCCO4)n2)c1)NCCOC(=O)CCCCC1SCC2NC(=O)NC21` (stereo not drawn) [Compound R926811] had an IC50 of 1.28 µM.

`O=C(COc1cccc(Nc2ncc(F)c(Nc3ccc4c(c3)OCCO4)n2)c1)NC1CCCCC1` [Compound R926765] registered a 50% inhibitory concentration (IC50) of 8 µM.

`CCOC(=O)CNC(=O)Nc1c(Nc2ccc(OCC(=O)OCC)cc2)nc(Nc2ccc(OCC(=O)OCC)cc2)nc1C(=O)OCC` [Compound R926587] displayed a half-maximal inhibitory concentration (IC50) greater than 10 µM.

`CNC(=O)Cn1ncc2ccc(Nc3nc(Nc4ccc5c(c4)OCCO5)ncc3F)cc21` [Compound R935225]: half-maximal inhibition (IC50) required 7.42 µM.

In turn, `C[C@H](Nc1nc(Nc2ccc3c(c2)OCCO3)ncc1F)[C@H](O)c1ccccc1` [Compound R925766] showed an IC50 greater than 10 µM.

Consider `COC(=O)COc1ccc(Nc2ncc(F)c(Nc3ccc(OCC(=O)OC(C)(C)C)cc3)n2)cc1` [Compound R926572], for which the IC50 is greater than 10 µM.

The compound `CSc1nc2ccc(Nc3ncc(F)c(Nc4cccc(O)c4)n3)cc2s1` [Compound R950212] yielded an IC50 of 9.5 µM.

On to `CNC(=O)CCn1ncc2ccc(Nc3ncc(F)c(Nc4ccc(OC(C)C)cc4)n3)cc21` [Compound R935291], for which the IC50 was 3.14 µM.

On to `Fc1cnc(Nc2ccc(OCc3nn[nH]n3)cc2)nc1Nc1ccc(OCc2nn[nH]n2)cc1` [Compound R945033], for which the 50% inhibitory concentration (IC50) was greater than 10 µM.

With `O=C(O)COc1cccc(Nc2ncc(F)c(Nc3ccc(O)c(C(=O)O)c3)n2)c1` [Compound R950291], the IC50 is greater than 10 µM.

In the case of `CNC(=O)COc1cc(Nc2ncc(F)c(Nc3ccc4cc[nH]c4c3)n2)ccc1OC` [Compound R926752], half-maximal inhibition (IC50) required 1.73 µM.

In turn, `CC(=O)Nc1cccc(N(C(C)=O)c2ncc(F)c(N(C(C)=O)c3cccc(NC(C)=O)c3)n2)c1` [Compound R950244] returned an IC50 greater than 10 µM.

Regarding `NCCNC(=O)c1cc2cc(Nc3ncc(F)c(Nc4ccc5oc(C(=O)NCCN)cc5c4)n3)ccc2o1` [Compound R950168], it took 10.7 µM to reach half-maximal inhibition (IC50).

Compound `N#Cc1cnc(Nc2cccc(O)c2)nc1Nc1ccc(OCC(=O)NCC2CC2)cc1` [Compound R925845] showed an IC50 of 6.97 µM.

`CNC(=O)COc1cccc(Nc2ncc(F)c(Nc3ccc4cc(C(=O)OC)[nH]c4c3)n2)c1` [Compound R926904] had an IC50 of 1.36 µM.

In turn, `Cc1nc(COc2cccc(Nc3nc(Nc4ccc5c(c4)OCCO5)ncc3F)c2)no1` [Compound R945137] registered a half-maximal inhibitory concentration (IC50) of 5.43 µM.

On to `CNC(=O)COc1cccc(Nc2ncc(F)c(Nc3ccc(F)c(C(F)(F)F)c3)n2)c1` [Compound R926838], for which the half-maximal inhibitory concentration (IC50) amounted to 10.7 µM.

For `CNC(=O)COc1cccc(Nc2ncc(F)c(Nc3cccc(B(O)O)c3)n2)c1` [Compound R926754], the 50% inhibitory concentration (IC50) was 13.2 µM.

With `CC(C)Oc1ccc(Nc2nc(Nc3ccc4nn(C)cc4c3)ncc2F)cc1` [Compound R935298], the IC50 was found to be 2.32 µM.

As for `CNC(=O)COc1cccc(Nc2ncc(F)c(Nc3cccc(C(C)(C)C)c3)n2)c1` [Compound R940276], 2.53 µM corresponded to half-maximal inhibition (IC50).

Consider `COC(=O)COc1cccc(Nc2ncc(F)c(Nc3ccc(OC(C)C)cc3)n2)c1` [Compound R945125], for which the half-maximal inhibitory concentration (IC50) is greater than 10 µM.

The compound `COc1ccc(Nc2ncc(F)c(Nc3ccc(OC)c(-c4ccccc4)c3)n2)cc1-c1ccccc1` [Compound R926399] came in with a half-maximal inhibitory concentration (IC50) greater than 10 µM.

As for `COc1cccc(Nc2nc(Nc3cccc(OCC(=O)NCC(O)CO)c3)ncc2F)c1` (stereo not drawn) [Compound R926739], the half-maximal inhibitory concentration (IC50) is 2.09 µM.

Compound `O=[N+]([O-])c1ccc(NCCO)c(Nc2ccnc(Nc3cc([N+](=O)[O-])ccc3NCCO)n2)c1` [Compound R950156] displayed an IC50 greater than 10 µM.

In turn, `O=C(CNc1cccc(Nc2ncc(F)c(Nc3ccc4c(c3)OCCO4)n2)c1)N1CCNCC1` [Compound R950197] yielded a 50% inhibitory concentration (IC50) of 2.58 µM.

Turning to `COC(=O)c1cc(COc2cccc(Nc3ncc(F)c(Nc4ccc5c(c4)OCCO5)n3)c2)co1` [Compound R935207], the IC50 is greater than 10 µM.

`CSc1nc2ccc(Nc3ncc(F)c(Nc4ccc5c(c4)OCCO5)n3)cc2s1` [Compound R950201] yielded an IC50 of 4.5 µM.

The compound `CCOC(=O)COc1ccc(Nc2nc(Cl)cc(NCC(=O)OC)n2)cc1` [Compound R926555] gave an IC50 greater than 10 µM.

For the compound `CNC(=O)COc1ccc(Nc2nc(Nc3ccc4c(c3)OCCO4)ncc2F)cc1` [Compound R945173], the IC50 came out at 2.88 µM.

For the compound `CNC(=O)COc1cc(Nc2ncc(F)c(Nc3ccc(C)c(OCC(=O)NC)c3)n2)ccc1C` [Compound R926760], the IC50 was determined as 10.2 µM.

The compound `OCCn1ncc2cc(Nc3nc(Nc4ccc5c(c4)OCCO5)ncc3F)ccc21` [Compound R935258] displayed an IC50 of 6.26 µM.

Still in this experiment, the particulars now being: Homo sapiens.
With `O=[N+]([O-])c1cc(Nc2ncc(F)c(Nc3ccc(F)c([N+](=O)[O-])c3)n2)ccc1F` [Compound R950148], the concentration for half-maximal inhibition (IC50) is greater than 10 µM.

The same experiment, now with this note: Homo sapiens, Jurkat.
Turning to `COc1cc(Nc2ncc(F)c(Nc3cccc(O)c3)n2)c(OC)cc1Cl` [Compound R926857], the IC50 was greater than 10 µM.

Compound `COc1ccc(OCCNc2ncc(F)c(Nc3ccc4c(c3)OCCO4)n2)cc1` [Compound R950204] came in with a 50% inhibitory concentration (IC50) greater than 10 µM.

Compound `Fc1ccc(Nc2ncc(F)c(Nc3ccc4c(c3)OCCO4)n2)cc1Cl` [Compound R926218] came in with a half-inhibitory concentration (IC50) greater than 10 µM.

`Oc1cccc(Nc2ncc(F)c(NCc3csc4ccccc34)n2)c1` [Compound R945146] came in with a concentration for half-maximal inhibition (IC50) greater than 10 µM.

`COc1ccc(Nc2nc(Nc3cccc(C(C)(C)C)c3)ncc2F)cc1OC` [Compound R940260] showed an IC50 greater than 10 µM.

As for `COc1cc(-c2ccccc2)c(C)cc1Nc1ccnc(Nc2cc(C)c(-c3ccccc3)cc2OC)n1` [Compound R925808], the IC50 is greater than 10 µM.

Take `COC(=O)c1cc(Nc2ncc(F)c(Nc3ccc(OC)c(C(=O)OC)c3)n2)ccc1OC` [Compound R945066]: half-maximal inhibition (IC50) required 43.2 µM.

For `COC(=O)c1cccc(Nc2ncc(F)c(Nc3cccc(C(=O)OC)c3)n2)c1` [Compound R945035], the IC50 was greater than 10 µM.

For `Cc1cnc(NCCc2ccc(O)cc2)nc1NCCc1ccc(O)cc1` [Compound R926397], it took 12.5 µM to reach half-maximal inhibition (IC50).

Compound `CCOC1CCCc2ccc(Nc3nc(Nc4cccc(O)c4)ncc3F)cc21` (stereo not drawn) [Compound R926942] returned an IC50 greater than 10 µM.

For `COC(=O)c1cc2cc(Nc3nc(Nc4ccc5c(c4)OCCO5)ncc3F)ccc2o1` [Compound R926485], the IC50 is greater than 10 µM.

In the case of `Fc1cnc(Nc2ccc3c(c2)OC(F)(F)O3)nc1Nc1ccc2c(c1)OCCO2` [Compound R926386], the IC50 is greater than 10 µM.

Turning to `Fc1cnc(Nc2cccc(-c3ccccc3)c2)nc1Nc1cccc(-c2ccccc2)c1` [Compound R926403], the half-maximal inhibitory concentration (IC50) is greater than 10 µM.

`Oc1cccc(Nc2ncc(F)c(Nc3ccc4c(c3)C=CCC4)n2)c1` [Compound R926943] showed an IC50 of 18.5 µM.

`Oc1cccc(Nc2nc(Nc3cccc(-c4cc[nH]n4)c3)ncc2F)c1` [Compound R926841] registered a half-inhibitory concentration (IC50) of 3.28 µM.
